Results from a melting point compilation (Tetko et al.; mined from patent text by program, amines drawn as free bases though some values may be those of a salt).

| SMILES | melting point [°C] |
| --- | --- |
| CONS(=O)(=O)c1ccccc1Cl | 92.5 to 94 |
| COc1cccc2c(O)c(C(=O)NCCCCN3CCN(C(c4ccccc4)c4ccccc4)CC3)cnc12 | 209 to 212 |
| CS(=O)(=O)c1ccc2nc(N)[nH]c2c1 | 233 to 238 |
| O=c1ccc(S(=O)(=O)c2cc3cc(Cl)ccc3[nH]2)n[nH]1 | > 250 |
| Cc1cc(O)c(C)c(C)c1N | 153 to 154 |
| COc1ccc(O)c2c(C)c(C)[nH]c12 | 164 |
| COc1cc(Nc2nccc(-c3ccc(N4CCN(CCCN5C(=O)c6ccccc6C5=O)CC4)nc3)n2)cc(OC)c1OC | 105 to 106 |
| CC(C)(CO)c1ccc(C(=O)Nc2cn3cc(-c4ccoc4)ccc3n2)cc1 | 246 to 248 |
| O=C(/C=C/c1ccc(O)cc1)CC(=O)/C=C/c1ccc(O)cc1Cl | 131 to 138 |
| CCNC(=O)C1(CCCc2ccccc2)c2ccccc2Oc2ccccc21 | 130 |
| CS(=O)(=O)N(Cc1cccnc1)c1ccc(Cl)cc1Cl | 180 to 186 |
| CC(c1oc2ccccc2c(=O)c1-c1cccc(F)c1)n1nc(-c2cc3ccccc3s2)c2c(N)ncnc21 (configuration not stated) | 242 to 245 |
| Cn1c(C(=O)O)ccc1C(=O)c1ccccc1 | 178 to 181 |
| Fc1ccc2c(c1)Cc1cccnc1-2 | 80 to 84 |
| COc1cc(OC)c2c(=O)[nH]c(-c3cc(C)c(OCCN4C(=O)NC(c5ccccc5)C4=O)c(C)c3)nc2c1 (configuration not stated) | 220 to 221 |
| c1ccc(CN2CCN(c3nc4c(c(N5CCOCC5)n3)SCCC4)CC2)cc1 | 125 |
| O=C1Nc2ccc([N+](=O)[O-])cc2C1(Br)Br | 205 |
| O=C(O)c1cc(Br)c(Cl)s1 | > 200 |
| Cc1cnnc2c1C(=O)CC(c1ccsc1)C2 (configuration not stated) | 125 to 126 |
| CC(C)(C)OC(=O)N1CCC(c2noc3c(O)c(F)ccc23)CC1 | 169 to 170 |
| COc1cccc(-c2cc(=O)c3cccc(C(=O)Nc4ccc(CCCCN5CCc6cc(OC)c(OC)cc6C5)cc4)c3[nH]2)c1 | 116 |
| COc1cc(Cc2cnc(N)nc2N)c2c(c1OC)OC(C)CC2O (configuration not stated) | 201 to 203 |
| Cc1cccc(C)c1NC(=O)CS(C)=O (configuration not stated) | 112 to 114 |
| COc1cc(-c2c3c(cc4ccc5c(c24)OCO5)C(=O)NC3)ccc1OCc1ccccc1 | 236 to 239 |
| C#CCN1CCN(c2c(Cl)cc3c(=O)c(C(=O)O)cn4c3c2CCC4C)CC1 (configuration not stated) | 211 to 213 |

| SMILES | melting point [°C] |
| --- | --- |
| O=C(CN1C(=O)C2(COc3cc4c(cc32)CCO4)c2c(Br)cccc21)Nc1ccccc1F (configuration not stated) | 245 to 246 |
| CC(C)(C)Sc1c(CC(C)(C)C(=O)O)n(Cc2ccc(Cl)cc2)c2ccc(Oc3ccccn3)cc12 | 206 to 207 |
| Cc1cc2c(cc1O)C(C)(C)CC1(CC(C)(C)c3cc(OCCCn4nc(CO)cc4C)c(C)cc3O1)O2 (configuration not stated) | 217 to 219 |
| S=C1CN=C(c2ccccn2)c2cc(Cl)ccc2N1 | 217 to 218 |
| CCOc1ccc(C2=NN(c3ccc(C(=O)N4CCS(=O)(=O)CC4)cc3)C(=O)[C@H]3CC=CC[C@@H]23)cc1OCC (relative stereo) | 186 to 187 |
| O=C(O)C12CC3CC(F)(CC(F)(C3)C1)C2 | 162 to 164 |
| FC(F)(F)c1nncn1-c1ccccc1 | 80 |
| O=C(Nc1ccc(-n2nc(C(F)(F)F)cc2C2CC2)cc1)c1c(F)cccc1F | 188 to 191 |
| O=C(N[C@H]1C[C@H](C(=O)O)Nc2cc(Cl)cc(Cl)c21)C(c1ccccc1)c1ccccc1 (relative stereo) | 238 |
| CCOC(=O)C(=O)CC(=O)c1c(-c2ccccc2)cc2ccccn12 | 100 to 102 |
| Cc1cc(C(=N)NO)cn2cc(-c3cccc(-c4ccc(C(=N)NO)cc4)c3)nc12 | 193 to 195 |
| CNc1cc(SC2CCN(C)CC2)ccc1[N+](=O)[O-] | 90 |
| CCOC(=O)c1cc(OCc2ccccc2)ccc1OCC(F)(F)F | 145 to 146 |
| CCOC(=O)c1ccc(-c2c(Cl)c(CN3C(=O)CCC3=O)nc3sc4c(c23)CCNC4)cc1 | 213 to 214 |
| CCOC(=O)/C=C/c1ccc(OCCOC)cc1NC(=O)c1ccc(Cl)cc1Cl | 170 |
| c1ccc(-c2ccc(CCOc3ncnc4ccccc34)cc2)cc1 | 72 to 74 |
| CN(CC(O)C(Cc1ccccc1)NC(=O)OC(C)(C)C)CC(O)C(Cc1ccccc1)NC(=O)OC(C)(C)C (configuration not stated) | 62 to 70 |
| CC(C)(C)OC(=O)[C@@H]1CCCN2C(=O)CC[C@H](NC(=O)OCC3c4ccccc4-c4ccccc43)C(=O)N12 | 190 to 192 |
| COc1cc2c3ccc(OC)c(OC)c3n(Cc3ccc(Br)cc3)c2cc1OC | 143 to 144 |
| COc1ccc2c(c1)C(=O)N(c1ccc3cnn(C)c3c1)C2 | 175 to 177 |
| C#Cc1ncn2c1CN(C)C(=O)c1cc(F)ccc1-2 | 207 to 208 |
| CCOc1cc2c3c(c4cc(OCC)c(OCC)cc4c2cc1OCC)C(=O)C=CC3=O | 188 to 190 |
| CS(=O)(=O)N=C(NCCSCc1ccco1)Oc1ccccc1O | 110 to 112 |
| O=C(CCl)c1scc(Br)c1Br | 86 to 88 |
| CNC1C=Cc2cc(O)ccc2CC1 (configuration not stated) | 152 |

| SMILES | melting point [°C] |
| --- | --- |
| CCc1c(C)nc2ccc(Cl)cn2c1=O | 114 to 116 |
| CC1Oc2ccc(C(F)(F)F)cc2NC1=O (configuration not stated) | 142 to 144 |
| CC(=Cc1ccc2ccccc2c1)c1ccc(C)cc1 | 109 |
| CC(C)(C)C(O)Cn1ncn(-c2ccc(N3CCN(c4ccc(O[Si](C)(C)C(C)(C)C)cc4)CC3)cc2)c1=O (configuration not stated) | 196 |
| Cc1cc2c(c3c(=O)cc(C(=O)O)oc13)OC(C)(C)c1cc(S(=O)(=O)O)ccc1-2 | 264 to 266 |
| ClCCc1cc(-c2ccc(Cl)cc2)n(-c2ccc(OCc3ccc4ccccc4n3)cc2)n1 | 105 |
| CC(CO)(CO)NS(=O)(=O)c1cc(NC(=O)c2cnn3c(C(F)(F)F)cc(-c4ccc(C(F)(F)F)cc4)nc23)c(Cl)s1 | 201 |
| O=C(CSc1nc[nH]n1)c1ccccc1 | 119 to 120 |
| Clc1ccc(Cn2ccc3cc(OCc4ccncc4)ccc32)cc1 | 105 to 107 |
| CCOC(=O)C(C)C(=O)Nc1cccc(S)c1 (configuration not stated) | 73 to 75 |
| COC(=O)CCCC=Cc1nn(-c2ccc(F)cc2)c2c1CCC2 | 67 to 68 |
| CC(C)c1cccc(CCCO)c1NC(=O)CC1c2ccccc2Oc2ccccc21 | 218 to 219 |
| O=C(NC(=O)c1ccccc1Cl)Nc1cc(Cl)c(OC(F)(F)C(F)Cl)cc1Cl (configuration not stated) | 158 to 160 |
| Cc1ccc(-c2ccccc2S(N)(=O)=O)cc1 | 122 |
| O=C(Nc1ccc(Oc2ccc(N(CC(=O)N3CCN(Cc4ccc5c(c4)OCO5)CC3)C(=O)C(F)(F)F)cc2)nc1)c1ccc(Cl)c(Cl)c1 | 211 to 213 |
| COC(=O)C(C)=CC=P(c1ccccc1)(c1ccccc1)c1ccccc1 | 145 to 150 |
| CN1CC2=C(n3cnc(C#CC(C)(C)O)c3C1)S(=O)C=C2 (configuration not stated) | 180 to 181 |
| CCCCCCCNC(=O)N(C)c1cccc(-c2ccc(C=C(OC)C(=O)O)cc2)c1 | 114 |
| CCCCN(C)C(=O)CSCCCCCOc1ccc(C2=C(c3ccccc3)CCCc3cc(O)ccc32)cc1 | 112 to 114 |
| CCOC(=O)c1nnc2n1-c1sc(Cl)cc1C(c1ccccc1Cl)=NC2 | 180 to 182 |
| COc1cc(-c2c(Cl)c(CN3C(=O)CCC3=O)nc3sc4c(c23)CCNC4)ccc1OC(C)C | 175 to 176 |
| COc1ccc(-c2cnc(C=NN3CC(=O)NC3=O)o2)cc1 | 291 to 294 |
| CSc1ccc(NC(=O)CCCCCSc2nc3ccccc3o2)c(SC)n1 | 125 to 126 |
| NS(=O)(=O)CC(=O)c1ccccc1 | 97 to 99 |
| N#CC(c1ccc(C(F)(F)F)cc1)N1CCOCC1 (configuration not stated) | 89 to 90 |

| SMILES | melting point [°C] |
| --- | --- |
| CS(=O)(=O)c1ccc2ccc(C(=O)O)cc2c1 | 273 to 274 |
| Cc1nc(N2CCN(C)CC2)nc(N)c1-c1cccc(Br)c1 | 120 to 122 |
| Cc1sc(S(C)(=O)=O)nc1-c1ccccc1 | 114 to 115 |
| COc1cc(C(C)C)c2c(c1)S(=O)(=O)N(COc1cc(C(F)(F)F)nn1-c1ccc(Cl)cc1)C2=O | 160 to 161 |
| CC(C)C(=O)C(=CC(=O)c1ccc(Cl)cc1)n1cncn1 | 128 to 130 |
| CC(C)c1ccc(NCc2ccc(Br)cc2)cc1 | 30 |
| CCOc1cc2cc(CO)c(CO)c(-c3ccnc(-n4nc(-c5cccnc5)c5ccccc5c4=O)c3)c2cc1OCC | 222 |
| CC(=O)OCc1ncc2n1-c1ccc(Cl)cc1C(c1ccccc1F)=NC2 | 151 to 152 |
| C=CCn1c(=O)c2ccccc2n2c(CCCl)nnc12 | 142 to 144 |
| CCOC(=O)/C=C/c1cc(F)c2ncc(C(=O)NCc3ccc(Cl)cc3)c(O)c2c1 | 278 to 280 |
| CCCCOc1cc(/C=C(\OCC)C(=O)O)ccc1OCCc1ccc(NS(=O)(=O)CCCC)cc1 | 164 |
| COC(=O)c1cc(=O)c2c(C(F)(F)F)c3c(=O)cc(C(=O)OC)[nH]c3c(Cl)c2[nH]1 | 205 to 208 |
| COc1nccc2c1C(c1ccccc1C(F)(F)F)C(C(=O)OCCN(C)C)=C(C)N2 (configuration not stated) | 137 to 138 |
| CC(=O)OCc1ccc2sc(S(N)(=O)=O)cc2c1 | 113 to 115 |
| COC(=O)C(Oc1ccc(F)cc1)c1ccc(Sc2ccc(Cl)cc2)cc1 (configuration not stated) | 84.5 to 87 |
| NC(=O)COc1ccc(CCN2CCC(Nc3nc4ccccc4n3Cc3ccc(F)cc3)CC2)cc1 | 180 |
| CN(C)c1ccc(N(c2ccccc2)C2(c3ccc(N(C)C)cc3)OC(=O)c3ccccc32)cc1 (configuration not stated) | 163 to 166 |
| Oc1ccc(CN2CCN(CCCN3CCN(Cc4ccc(O)cc4)CC3)CC2)cc1 | 197 to 201 |
| O=C(O)CCc1ccc(C(=O)NCc2ccccn2)cc1 | 83.8 |
| CC(=O)NCCOc1cc(N)c(Cl)cc1C(=O)NCCN(C)C | 143 to 145 |
| Cc1cc(C2(C(F)(F)F)CC(c3ccc(S(C)=O)cc3)=NO2)ccc1NC(=O)OC(C)(C)C (configuration not stated) | 76.5 to 88.5 |
| c1ccc(C(c2ccccc2)N2CCC2)cc1 | 107 to 109 |
